The values that follow come from patent US20250281479A1, “TREATMENT OF CAVERNOUS ANGIOMAS WITH A 4-SUBSTITUTED PIPERIDINE DERIVATIVE” (Neurelis, Inc., priority 2024, published 2025).

What all share (type): in vitro ADME
One data set addresses MATE2-K (Homo sapiens, UniProt Q86VL8). Here is the method:
(§1) Exposure to NRL-2017 was similar or greater (up to 5-fold) than that to NRL-1049 in rats when dosed once a day (QD). In monkeys, exposure to NRL-2017 was also greater (up to 33-fold) than that to NRL-1049. When rats were dosed twice a day (BID) for 14 days, there was a decrease in formation of NRL-2017 with exposure to NRL-2017 lower than that of NRL-1049 (ratio as low as 0.06). […] NRL-1049 bound to human serum albumin and human alpha1-acid glycoprotein. […] There was also inhibition of P-glycoprotein (P-gp) (only CACO-2 cells), organic anion transporting polypeptides (OATP) OATP1B1, OATP1B3 and OAT3 (IC50, >100 μM), but no effect on P-gp (MDCK2 cells), breast cancer resistance protein (BCRP), bile salt export pump (BSEP), or MATE2-K. NRL-1049 is a substrate for P-gp, not BCRP. […] This conclusion will be revisited when human pharmacokinetic (PK) data becomes available.

The next data set deals with CYP1A2. The experiment in a line: CYP induction in hepatocyte culture. The settings on record: in at least one hepatocyte culture. Here is the method:
as §1

Another data set deals with CYP3A4. Put plainly: CYP induction in hepatocyte culture. The settings on record: in at least one hepatocyte culture. Here is the method:
as §1

In another data set the test system is rat hepatocytes. The experiment in a line: incubation with rat hepatocytes. The settings on record: two metabolites formed, NRL-2017 and an N-oxide. Here is the method:
as §1

Data set [1] relates to human alpha1-acid glycoprotein. The experiment in a line: binding to human alpha1-acid glycoprotein. Here is the method: as §1
The target in another data set is OCT2 (Homo sapiens, UniProt O15244). The experiment in a line: transporter inhibition. The settings on record: one range printed for OAT1, OCT1, OCT2 and MATE1 together. Here is the method: as §1
Chain of OCT2 (O15244 whole entry): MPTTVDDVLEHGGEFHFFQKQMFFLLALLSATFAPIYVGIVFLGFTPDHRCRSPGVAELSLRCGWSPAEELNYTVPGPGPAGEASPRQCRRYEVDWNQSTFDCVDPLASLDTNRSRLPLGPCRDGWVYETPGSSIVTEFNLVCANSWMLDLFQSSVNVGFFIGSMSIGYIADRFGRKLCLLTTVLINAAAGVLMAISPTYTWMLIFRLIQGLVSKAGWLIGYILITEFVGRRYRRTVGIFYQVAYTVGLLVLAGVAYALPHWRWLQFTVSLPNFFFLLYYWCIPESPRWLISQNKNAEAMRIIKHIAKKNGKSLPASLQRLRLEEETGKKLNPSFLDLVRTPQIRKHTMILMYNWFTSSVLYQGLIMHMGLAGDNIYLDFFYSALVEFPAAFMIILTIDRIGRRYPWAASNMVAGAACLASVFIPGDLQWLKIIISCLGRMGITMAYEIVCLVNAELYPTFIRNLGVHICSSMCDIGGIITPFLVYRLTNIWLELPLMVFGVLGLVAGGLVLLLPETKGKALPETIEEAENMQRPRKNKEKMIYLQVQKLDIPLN
In another data set the target is OAT3 (Homo sapiens, UniProt Q8TCC7). The experiment in a line: transporter inhibition. Here is the method:
as §1

Data set [2] addresses bile salt export pump (BSEP) (Homo sapiens, UniProt O95342). Put plainly: transporter inhibition. Here is the method:
as §1

The target in another data set is MATE1 (Homo sapiens, UniProt Q96FL8). The experiment in a line: transporter inhibition. The settings on record: one range printed for OAT1, OCT1, OCT2 and MATE1 together. Here is the method:
as §1

The target of the next data set is T1, P-gp (MDCK2 cells) (Homo sapiens, UniProt P08183).
T1 construct: host or cells: MDCK2 cells
Put plainly: transporter inhibition. Here is the method: as §1

A further data set has as its target OCT1 (Homo sapiens, UniProt O15245). Put plainly: transporter inhibition. Particulars: one range printed for OAT1, OCT1, OCT2 and MATE1 together. Here is the method:
as §1

For data set [3], the target named is breast cancer resistance protein (BCRP) (Homo sapiens, UniProt Q9UNQ0). The experiment in a line: transporter inhibition. Here is the method:
as §1

In the next data set the target is OAT1 (Homo sapiens, UniProt Q4U2R8). The experiment in a line: transporter inhibition. Particulars: one range printed for OAT1, OCT1, OCT2 and MATE1 together. Here is the method: as §1
Chain of OAT1 (Q4U2R8 whole entry): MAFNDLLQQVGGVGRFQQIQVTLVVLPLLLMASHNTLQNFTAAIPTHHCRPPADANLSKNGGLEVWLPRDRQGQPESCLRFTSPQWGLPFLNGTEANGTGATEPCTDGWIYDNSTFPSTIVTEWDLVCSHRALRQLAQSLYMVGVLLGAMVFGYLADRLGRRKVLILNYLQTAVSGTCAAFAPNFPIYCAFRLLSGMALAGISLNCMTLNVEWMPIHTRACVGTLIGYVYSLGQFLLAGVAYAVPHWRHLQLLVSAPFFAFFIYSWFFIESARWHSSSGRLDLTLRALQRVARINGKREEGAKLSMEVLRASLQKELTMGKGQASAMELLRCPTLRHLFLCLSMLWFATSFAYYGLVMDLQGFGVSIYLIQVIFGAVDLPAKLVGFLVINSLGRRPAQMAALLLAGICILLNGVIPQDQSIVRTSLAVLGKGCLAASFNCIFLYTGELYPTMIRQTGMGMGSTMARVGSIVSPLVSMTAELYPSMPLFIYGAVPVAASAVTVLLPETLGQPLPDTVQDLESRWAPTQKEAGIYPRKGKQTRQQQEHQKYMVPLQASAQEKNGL
Data set [4] addresses T2, P-glycoprotein (P-gp) (only CACO-2 cells) (Homo sapiens, UniProt P08183).
T2 construct: endogenous in cells; host or cells: CACO-2 cells
The experiment in a line: transporter inhibition. Here is the method: as §1

The target in the next data set is OATP1B1 (Homo sapiens, UniProt Q9Y6L6). The experiment in a line: transporter inhibition. Here is the method:
as §1

The target in the next data set is OATP1B3 (Homo sapiens, UniProt Q9NPD5). Put plainly: transporter inhibition. Here is the method: as §1
Chain of OATP1B3 (Q9NPD5 whole entry): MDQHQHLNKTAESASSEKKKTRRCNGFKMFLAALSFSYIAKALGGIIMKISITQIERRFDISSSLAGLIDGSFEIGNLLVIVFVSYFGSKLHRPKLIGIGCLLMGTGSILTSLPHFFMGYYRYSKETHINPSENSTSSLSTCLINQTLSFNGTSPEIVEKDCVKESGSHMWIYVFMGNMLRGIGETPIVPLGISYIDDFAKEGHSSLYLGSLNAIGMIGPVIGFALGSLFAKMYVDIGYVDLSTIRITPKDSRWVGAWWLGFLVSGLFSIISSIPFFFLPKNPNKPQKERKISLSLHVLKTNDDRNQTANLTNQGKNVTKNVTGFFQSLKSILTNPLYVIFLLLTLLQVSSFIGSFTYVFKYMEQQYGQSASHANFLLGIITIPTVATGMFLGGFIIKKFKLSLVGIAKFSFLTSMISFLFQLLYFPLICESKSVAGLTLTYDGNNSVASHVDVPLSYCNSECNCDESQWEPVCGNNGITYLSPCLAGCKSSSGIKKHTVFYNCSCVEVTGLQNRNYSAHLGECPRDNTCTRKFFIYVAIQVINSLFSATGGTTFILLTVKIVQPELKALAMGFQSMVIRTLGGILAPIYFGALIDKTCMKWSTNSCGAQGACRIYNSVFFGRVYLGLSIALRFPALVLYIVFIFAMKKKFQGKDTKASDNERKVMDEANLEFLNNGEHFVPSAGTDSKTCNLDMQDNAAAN
For the next data set, the target named is CYP2C8 (Homo sapiens, UniProt P10632). The experiment in a line: CYP inhibition. Particulars: read-out: half-maximal inhibitory concentration (IC50). Here is the method:
as §1

The next data set addresses BCRP (Homo sapiens, UniProt Q9UNQ0). The experiment in a line: transporter substrate assessment. Here is the method: as §1
The next data set deals with P-gp (Homo sapiens, UniProt P08183). Put plainly: transporter substrate assessment. Here is the method:
as §1

The subject of a further data set is dog hepatocytes. The experiment in a line: incubation with dog hepatocytes. Here is the method:
as §1

Data set [5] relates to mouse, monkey, and human hepatocytes. The experiment in a line: incubation with hepatocytes (mouse, monkey, human). Here is the method:
as §1

Chain of MATE2-K (Q86VL8 1-566 isoform Q86VL8-3): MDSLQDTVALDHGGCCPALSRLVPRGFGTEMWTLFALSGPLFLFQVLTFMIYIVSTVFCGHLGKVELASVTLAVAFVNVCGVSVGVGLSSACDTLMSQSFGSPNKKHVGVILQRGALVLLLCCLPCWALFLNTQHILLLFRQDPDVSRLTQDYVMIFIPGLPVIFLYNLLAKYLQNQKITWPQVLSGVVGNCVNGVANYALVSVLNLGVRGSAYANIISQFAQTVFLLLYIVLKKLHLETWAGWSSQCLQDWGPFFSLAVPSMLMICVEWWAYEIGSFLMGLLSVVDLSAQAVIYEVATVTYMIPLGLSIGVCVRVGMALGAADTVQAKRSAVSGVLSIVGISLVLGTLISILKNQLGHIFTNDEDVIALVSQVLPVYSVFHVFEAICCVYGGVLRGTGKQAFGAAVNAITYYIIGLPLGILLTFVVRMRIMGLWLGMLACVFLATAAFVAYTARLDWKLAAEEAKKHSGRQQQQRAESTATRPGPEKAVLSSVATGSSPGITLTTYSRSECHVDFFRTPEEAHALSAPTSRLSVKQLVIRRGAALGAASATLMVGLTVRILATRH
Chain of bile salt export pump (BSEP) (O95342 whole entry): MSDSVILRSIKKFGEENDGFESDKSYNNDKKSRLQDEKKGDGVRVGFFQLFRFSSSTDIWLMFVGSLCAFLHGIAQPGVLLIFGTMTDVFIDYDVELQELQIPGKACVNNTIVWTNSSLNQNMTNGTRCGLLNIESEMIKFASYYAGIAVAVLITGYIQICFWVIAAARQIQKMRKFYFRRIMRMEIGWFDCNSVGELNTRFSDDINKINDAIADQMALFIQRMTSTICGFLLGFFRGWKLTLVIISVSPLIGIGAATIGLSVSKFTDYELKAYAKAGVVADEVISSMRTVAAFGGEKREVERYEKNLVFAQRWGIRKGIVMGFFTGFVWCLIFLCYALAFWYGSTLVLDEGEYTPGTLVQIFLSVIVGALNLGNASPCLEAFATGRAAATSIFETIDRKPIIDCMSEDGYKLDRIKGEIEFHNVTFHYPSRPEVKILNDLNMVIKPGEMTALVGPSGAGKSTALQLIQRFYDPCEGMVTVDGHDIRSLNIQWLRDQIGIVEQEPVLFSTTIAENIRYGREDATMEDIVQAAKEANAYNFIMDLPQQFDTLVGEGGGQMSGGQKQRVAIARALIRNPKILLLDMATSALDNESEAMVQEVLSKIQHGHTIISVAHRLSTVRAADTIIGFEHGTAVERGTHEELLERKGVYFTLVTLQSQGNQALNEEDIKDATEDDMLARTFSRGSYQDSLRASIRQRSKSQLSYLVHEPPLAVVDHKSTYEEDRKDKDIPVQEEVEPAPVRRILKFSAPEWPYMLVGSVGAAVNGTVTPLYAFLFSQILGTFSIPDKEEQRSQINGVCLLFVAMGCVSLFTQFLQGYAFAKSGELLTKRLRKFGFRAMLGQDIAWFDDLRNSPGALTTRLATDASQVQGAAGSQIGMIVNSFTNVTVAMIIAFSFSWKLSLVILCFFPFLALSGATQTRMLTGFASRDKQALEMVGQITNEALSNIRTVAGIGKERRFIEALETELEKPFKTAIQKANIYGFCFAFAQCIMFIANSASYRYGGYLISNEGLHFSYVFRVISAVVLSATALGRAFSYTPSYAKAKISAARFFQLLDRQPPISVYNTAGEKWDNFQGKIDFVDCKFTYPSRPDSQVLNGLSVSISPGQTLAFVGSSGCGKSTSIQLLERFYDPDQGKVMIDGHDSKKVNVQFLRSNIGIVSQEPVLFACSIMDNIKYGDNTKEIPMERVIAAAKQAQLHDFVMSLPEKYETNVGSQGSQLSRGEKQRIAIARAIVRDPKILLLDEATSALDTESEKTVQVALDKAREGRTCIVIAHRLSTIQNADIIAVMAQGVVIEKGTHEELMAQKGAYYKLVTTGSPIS
Chain of OATP1B1 (Q9Y6L6 whole entry): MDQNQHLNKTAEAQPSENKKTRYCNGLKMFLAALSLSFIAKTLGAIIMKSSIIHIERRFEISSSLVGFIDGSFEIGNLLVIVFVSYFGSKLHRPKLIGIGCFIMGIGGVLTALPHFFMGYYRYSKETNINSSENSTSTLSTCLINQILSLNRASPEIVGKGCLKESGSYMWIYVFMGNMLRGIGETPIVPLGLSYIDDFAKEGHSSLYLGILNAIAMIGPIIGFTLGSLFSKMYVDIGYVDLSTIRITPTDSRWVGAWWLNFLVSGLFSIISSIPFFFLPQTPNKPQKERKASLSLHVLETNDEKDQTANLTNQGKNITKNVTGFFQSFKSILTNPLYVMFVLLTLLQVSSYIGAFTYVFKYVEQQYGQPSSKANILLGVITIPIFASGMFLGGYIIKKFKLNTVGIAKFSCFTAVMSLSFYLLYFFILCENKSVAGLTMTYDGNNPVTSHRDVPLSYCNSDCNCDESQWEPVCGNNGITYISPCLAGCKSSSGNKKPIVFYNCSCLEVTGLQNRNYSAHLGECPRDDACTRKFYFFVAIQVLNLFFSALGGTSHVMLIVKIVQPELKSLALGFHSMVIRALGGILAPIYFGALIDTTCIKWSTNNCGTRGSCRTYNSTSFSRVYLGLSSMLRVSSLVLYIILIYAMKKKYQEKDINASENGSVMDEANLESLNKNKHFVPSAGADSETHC
Chain of MATE1 (Q96FL8 whole entry): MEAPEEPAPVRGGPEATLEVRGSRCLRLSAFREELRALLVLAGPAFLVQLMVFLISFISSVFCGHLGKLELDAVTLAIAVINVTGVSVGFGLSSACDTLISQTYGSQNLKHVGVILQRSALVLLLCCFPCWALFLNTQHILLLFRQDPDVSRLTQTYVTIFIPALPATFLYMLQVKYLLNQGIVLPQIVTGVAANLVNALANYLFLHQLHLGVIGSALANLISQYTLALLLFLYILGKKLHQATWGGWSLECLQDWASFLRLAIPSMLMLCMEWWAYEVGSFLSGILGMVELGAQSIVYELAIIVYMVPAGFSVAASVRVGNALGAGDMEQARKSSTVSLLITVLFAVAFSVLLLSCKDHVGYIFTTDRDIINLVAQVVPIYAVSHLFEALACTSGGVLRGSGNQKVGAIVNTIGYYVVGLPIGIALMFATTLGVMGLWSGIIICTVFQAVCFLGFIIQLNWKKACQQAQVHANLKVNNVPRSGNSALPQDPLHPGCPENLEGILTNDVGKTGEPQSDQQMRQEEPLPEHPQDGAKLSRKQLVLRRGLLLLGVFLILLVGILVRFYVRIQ

Regarding `C[C@@H](N)C1CCN(S(=O)(=O)c2cccc3cnccc23)CC1` [NRL-1049], the effect on transporter entry (on MATE2-K; in data set [2]; on P-gp (MDCK2 cells); in data set [3]) was “no effect” each time. Besides, in the data set with CYP1A2, the “induction of CYP1A2” value came out at 3 fold. The “induction of CYP3A4, maximal effective concentration [Emax]” value in the data set with CYP3A4 amounted to 2.19 fold. Also, the EC50 with CYP3A4 (read-out: induction of CYP3A4, half-maximal effective concentration [EC50]) was 41.5 µM. Moreover, the “clearance rate in hepatocytes” value in the data set with rat hepatocytes is given as “moderate”. Moreover, in [1], the “binding to human alpha1-acid glycoprotein” value was “bound”. For the same compound, the IC50 was 8.54 to 66.2 µM on OCT2; above 100 µM on OAT3; 8.54 to 66.2 µM against MATE1; 8.54 to 66.2 µM at OCT1; 8.54 to 66.2 µM at OAT1; above 100 µM in [4]. In addition, the IC50 against OATP1B1 was above 100 µM; against OATP1B3, above 100 µM; on CYP2C8, 160 µM. The “substrate for BCRP” value on BCRP is “not BCRP”. At P-gp, the “substrate for P-gp” value was “substrate”. Also, in the data set with dog hepatocytes, the metabolism by hepatocytes result is given as “not metabolized”. The clearance in hepatocytes result in data set [5] was “moderate to high clearance”.
